Measured values from patent publication US9012443B2 (Amgen Inc., priority 2011, dated 2015).

Experiments:
Nav 1.7 [1] = biological target: T1, Nav 1.7 (Homo sapiens (Human), UniProt Q15858); assay: Nav 1.7 IWQ in vitro assay (IonWorks Quattro population patch-clamp); format: cell-based; conditions: 293 cells stably transfected with Nav 1.7; second part of table; read-out: Nav1.7 IWQ IC50 IP
Procedure, shortened: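 Percent block, measured in duplicate, came from peak minus end-of-pulse current on the 26th −20 mV step, and IC50 was fitted against concentration. Stably transfected 293 cells were recorded in population patch-clamp mode before and after a single test concentration, which was added over 3–8 min while cells were unclamped.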

Nav 1.7 [2] = biological target: T1, Nav 1.7; assay: Nav 1.7 in vitro PX assay (PatchXpress whole cell voltage clamp); format: cell-based; conditions: 293 cells, human Nav1.7, partially inactivated state; read-out: Nav1.7 PX IC50 IP
Procedure, shortened: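 Partially inactivated channel state (holding potential for 20–50% inactivation) probed in human Nav1.7-transfected 293 cells by automated patch clamp, test pulse −10 mV for 20 msec.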

T1 sequence (Q15858 whole entry): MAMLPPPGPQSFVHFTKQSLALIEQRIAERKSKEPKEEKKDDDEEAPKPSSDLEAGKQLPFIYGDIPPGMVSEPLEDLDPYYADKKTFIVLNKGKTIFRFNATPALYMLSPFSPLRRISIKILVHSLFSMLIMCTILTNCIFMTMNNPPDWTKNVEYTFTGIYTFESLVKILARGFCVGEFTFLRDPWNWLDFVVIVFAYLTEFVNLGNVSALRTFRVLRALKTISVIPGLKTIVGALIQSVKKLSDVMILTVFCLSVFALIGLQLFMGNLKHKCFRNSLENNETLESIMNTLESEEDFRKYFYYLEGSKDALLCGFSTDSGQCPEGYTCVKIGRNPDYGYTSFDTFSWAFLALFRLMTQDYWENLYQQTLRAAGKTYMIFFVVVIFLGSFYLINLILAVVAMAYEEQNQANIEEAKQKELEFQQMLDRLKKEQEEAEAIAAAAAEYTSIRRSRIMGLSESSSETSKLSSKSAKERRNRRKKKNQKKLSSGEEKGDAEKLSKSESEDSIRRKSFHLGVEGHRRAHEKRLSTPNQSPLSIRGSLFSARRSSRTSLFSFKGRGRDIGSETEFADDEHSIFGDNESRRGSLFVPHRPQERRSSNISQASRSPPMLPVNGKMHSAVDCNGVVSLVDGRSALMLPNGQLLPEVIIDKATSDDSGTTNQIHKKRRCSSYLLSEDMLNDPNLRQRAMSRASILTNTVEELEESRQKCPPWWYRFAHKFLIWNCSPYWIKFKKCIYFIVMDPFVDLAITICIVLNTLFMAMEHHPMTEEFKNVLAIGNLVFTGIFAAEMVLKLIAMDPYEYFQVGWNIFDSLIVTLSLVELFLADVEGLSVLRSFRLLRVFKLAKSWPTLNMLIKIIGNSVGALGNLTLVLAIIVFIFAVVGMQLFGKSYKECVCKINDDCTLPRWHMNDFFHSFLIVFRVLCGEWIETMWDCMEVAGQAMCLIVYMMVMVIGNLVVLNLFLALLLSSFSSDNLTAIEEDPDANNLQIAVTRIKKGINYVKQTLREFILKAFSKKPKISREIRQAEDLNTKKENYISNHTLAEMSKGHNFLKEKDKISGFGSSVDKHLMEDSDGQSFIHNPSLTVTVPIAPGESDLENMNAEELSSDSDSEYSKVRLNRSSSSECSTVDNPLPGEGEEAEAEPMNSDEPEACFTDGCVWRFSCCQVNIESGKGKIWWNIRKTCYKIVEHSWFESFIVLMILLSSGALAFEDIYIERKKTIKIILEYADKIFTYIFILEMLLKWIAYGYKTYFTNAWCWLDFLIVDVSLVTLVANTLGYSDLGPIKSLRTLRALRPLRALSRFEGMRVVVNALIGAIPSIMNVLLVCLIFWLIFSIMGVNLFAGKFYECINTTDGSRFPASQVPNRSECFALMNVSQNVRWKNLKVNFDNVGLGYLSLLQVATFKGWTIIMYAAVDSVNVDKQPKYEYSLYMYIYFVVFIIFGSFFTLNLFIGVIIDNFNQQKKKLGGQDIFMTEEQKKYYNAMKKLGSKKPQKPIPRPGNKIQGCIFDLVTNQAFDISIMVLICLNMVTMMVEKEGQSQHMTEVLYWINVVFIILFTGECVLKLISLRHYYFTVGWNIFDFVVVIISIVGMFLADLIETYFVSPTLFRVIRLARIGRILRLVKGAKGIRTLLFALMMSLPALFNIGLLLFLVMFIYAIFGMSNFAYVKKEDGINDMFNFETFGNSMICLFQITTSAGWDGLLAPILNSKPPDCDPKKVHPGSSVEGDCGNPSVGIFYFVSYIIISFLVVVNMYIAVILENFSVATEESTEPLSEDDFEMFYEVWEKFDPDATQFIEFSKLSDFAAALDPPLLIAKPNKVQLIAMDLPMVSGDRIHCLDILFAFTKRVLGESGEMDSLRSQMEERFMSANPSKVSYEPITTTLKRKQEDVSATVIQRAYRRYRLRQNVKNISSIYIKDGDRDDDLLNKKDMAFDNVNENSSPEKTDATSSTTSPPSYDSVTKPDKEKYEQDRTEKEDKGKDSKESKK

Row | IC50 (Nav 1.7 [1]) [nM] | IC50 (Nav 1.7 [2]) [nM] | SMILES
1 | 60 | 2400 | COc1ccc(C)cc1-c1nccc2cc(S(=O)(=O)Nc3ccncn3)ccc12 [Example 149]
2 | 120 | 7190 | COc1ccc(C#N)cc1-c1nccc2cc(S(=O)(=O)Nc3ccncn3)ccc12 [Example 150, 1-(5-CYANO-2-METHOXYPHENYL)-N-(PYRIMIDIN-4-YL)ISOQUINOLINE-6-SULFONAMIDE]
3 | 50 | 1150 | COc1cc(F)ccc1-c1nncc2cc(S(=O)(=O)Nc3nccs3)ccc12 [Example 250, 1-(4-FLUORO-2-METHOXYPHENYL)-N-(THIAZOL-2-YL)PHTHALAZINE-6-SULFONAMIDE]
4 | 20 | 1330 | COc1cc(Cl)ccc1-c1nccc2cc(S(=O)(=O)Nc3ccncn3)ccc12 [Example 160, 1-(4-CHLORO-2-METHOXYPHENYL)-N-(PYRIMIDIN-4-YL)ISOQUINOLINE-6-SULFONAMIDE]
5 | 20 | 150 | COc1cc(C(F)(F)F)ccc1-c1ncnc2cc(S(=O)(=O)Nc3ncns3)ccc12 [Example 265, 4-(2-METHOXY-4-(TRIFLUOROMETHYL)PHENYL)-N-(1,2,4-THIADIAZOL-5-YL)QUINAZOLINE-7-SULFONAMIDE]
6 | 240 | 480 | COc1cc(Cl)ccc1-c1ncc(C#N)c2cc(S(=O)(=O)Nc3nccs3)ccc12 [Example 241, 1-(4-chloro-2-methoxyphenyl)-4-cyano-N-(thiazol-2-yl)isoquinoline-6-sulfonamide]
7 | 670 | 5870 | COc1cc(C(F)(F)F)ccc1-c1nccc2cc(S(=O)(=O)Nc3ncncc3F)ccc12 [Example 183, N-(5-FLUOROPYRIMIDIN-4-YL)-1-(2-METHOXY-4-(TRIFLUOROMETHYL)PHENYL)ISOQUINOLINE-6-SULFONAMIDE]
8 | 30 | 507 | COc1ncc(Cl)cc1-c1nccc2cc(S(=O)(=O)Nc3nccs3)ccc12 [Example 176, 1-(5-CHLORO-2-METHOXYPYRIDIN-3-YL)-N-(THIAZOL-2-YL)ISOQUINOLINE-6-SULFONAMIDE]
9 | 120 | 1920 | COc1ccccc1-c1nncc2cc(S(=O)(=O)Nc3nccs3)ccc12 [Example 252, 1-(2-METHOXYPHENYL)-N-(THIAZOL-2-YL)PHTHALAZINE-6-SULFONAMIDE]
10 | 20 | 315 | COc1cc(Cl)ccc1-c1nccc2cc(S(=O)(=O)Nc3nccs3)ccc12 [Example 201, 1-(4-CHLORO-2-METHOXYPHENYL)-N-(THIAZOL-2-YL)ISOQUINOLINE-6-SULFONAMIDE]
11 | 110 | 588 | CN1CCN(c2cc(C(F)(F)F)ccc2-c2cccc3cc(S(=O)(=O)Nc4nccs4)ccc23)CC1 [Example 84, 5-(2-(4-METHYLPIPERAZIN-1-YL)-4-(TRIFLUOROMETHYL)PHENYL)-N-(THIAZOL-2-YL)NAPHTHALENE-2-SULFONAMIDE 2,2,2-TRIFLUOROACETATE]
12 | 60 | 1790 | COc1cc(F)c(F)cc1-c1nccc2cc(S(=O)(=O)Nc3ccncn3)ccc12 [Example 142, 1-(4,5-DIFLUORO-2-METHOXYPHENYL)-N-(PYRIMIDIN-4-YL)ISOQUINOLINE-6-SULFONAMIDE]
13 | 20 | 313 | COc1cc(C(F)F)ccc1-c1nccc2cc(S(=O)(=O)Nc3nccs3)ccc12 [Example 224, 1-(4-(DIFLUOROMETHYL)-2-METHOXYPHENYL)-N-(THIAZOL-2-YL)ISOQUINOLINE-6-SULFONAMIDE]
14 | 60 | 502 | Cn1ccnc1-c1cc(C(F)(F)F)ccc1-c1cccc2cc(S(=O)(=O)Nc3ccncn3)ccc12 [Example 124]
15 | 30 | 652 | O=S(=O)(Nc1ccncn1)c1ccc2c(-c3ccc(C(F)(F)F)cc3C3(F)CNC3)cccc2c1 [Example 118]
16 | 30 | 490 | COc1cc(F)ccc1-c1ccnc2cc(S(=O)(=O)Nc3nccs3)ccc12 [Example 274, 4-(4-FLUORO-2-METHOXYPHENYL)-N-(THIAZOL-2-YL)QUINOLINE-7-SULFONAMIDE]
17 | 110 | 1520 | O=S(=O)(Nc1nccs1)c1ccc2c(-c3ccc(C(F)(F)F)cc3F)nccc2c1 [Example 228, 1-(2-FLUORO-4-(TRIFLUOROMETHYL)PHENYL)-N-(THIAZOL-2-YL)ISOQUINOLINE-6-SULFONAMIDE]
18 | 60 | 450 | COc1cc(C(F)(F)F)ccc1-c1nc(C#N)cc2cc(S(=O)(=O)Nc3nccs3)ccc12 [Example 220, 3-CYANO-1-(2-METHOXY-4-(TRIFLUOROMETHYL)PHENYL)-N-(THIAZOL-2-YL)ISOQUINOLINE-6-SULFONAMIDE]
19 | 20 | 393 | COc1cc(Cl)c(Cl)cc1-c1nccc2cc(S(=O)(=O)Nc3ccncn3)ccc12 [Example 161, 1-(4,5-DICHLORO-2-METHOXYPHENYL)-N-(PYRIMIDIN-4-YL)ISOQUINOLINE-6-SULFONAMIDE]
20 | 30 | 290 | COc1cc(Cl)ccc1-c1nncc2cc(S(=O)(=O)Nc3nccs3)ccc12 [Example 249, 1-(4-CHLORO-2-METHOXYPHENYL)-N-(THIAZOL-2-YL)PHTHALAZINE-6-SULFONAMIDE]
21 | 60 | 320 | COc1cc(C(F)(F)F)ccc1-c1c(C#N)cnc2cc(S(=O)(=O)Nc3nccs3)ccc12 [Example 284, 3-CYANO-4-(2-METHOXY-4-(TRIFLUOROMETHYL)PHENYL)-N-(THIAZOL-2-YL)QUINOLINE-7-SULFONAMIDE]
22 | 20 | 470 | COc1cc(C#N)ccc1-c1ncnc2cc(S(=O)(=O)Nc3nccs3)ccc12 [Example 269, 4-(4-CYANO-2-METHOXYPHENYL)-N-(THIAZOL-2-YL)QUINAZOLINE-7-SULFONAMIDE]
23 | 200 | 3540 | COc1cc(C(F)(F)F)ccc1-c1nccc2cc(S(=O)(=O)Nc3ncccn3)ccc12 [Example 188, 1-(2-METHOXY-4-(TRIFLUOROMETHYL)PHENYL)-N-(PYRIMIDIN-2-YL)ISOQUINOLINE-6-SULFONAMIDE]
24 | 500 | 4510 | O=S(=O)(Nc1ccncn1)c1ccc2c(OCc3ncoc3-c3ccccc3)nccc2c1 [Example 130, 1-((5-PHENYLOXAZOL-4-YL)METHOXY)-N-(PYRIMIDIN-4-YL)ISOQUINOLINE-6-SULFONAMIDE]

Row | SMILES | IC50 (Nav 1.7 [1]) [nM] | IC50 (Nav 1.7 [2]) [nM]
25 | O=S(=O)(Nc1nccs1)c1ccc2c([C@@H]3CCCN3C3CCOCC3)cccc2c1 [Example 103, (S)-5-(1-(TETRAHYDRO-2H-PYRAN-4-YL)PYRROLIDIN-2-YL)-N-(THIAZOL-2-YL)NAPHTHALENE-2-SULFONAMIDE COMPOUND WITH DIETHYLAMINE (1:1)] | 1580 | 14500
26 | O=S(=O)(Nc1nccs1)c1ccc2c(C3CCCN3C3CCOCC3)nccc2c1 (centres unmarked) [Example 245, 1-(1-(TETRAHYDRO-2H-PYRAN-4-YL)PYRROLIDIN-2-YL)-N-(THIAZOL-2-YL)ISOQUINOLINE-6-SULFONAMIDE 2,2,2-TRIFLUOROACETATE] | 2220 | 30800
27 | O=C(c1ccccc1)N1CCCC1c1cccc2cc(S(=O)(=O)Nc3nccs3)ccc12 (centres unmarked) [Example 101] | 1160 | 11800
28 | COc1cc(C(F)(F)F)ccc1-c1nccc2cc(S(=O)(=O)Nc3nccs3)cnc12 [Example 291, 8-(2-METHOXY-4-(TRIFLUOROMETHYL)PHENYL)-N-(THIAZOL-2-YL)-1,7-NAPHTHYRIDINE-3-SULFONAMIDE] | 160 | 2530
